Experimental data reported in patent publication US10709718B2, “Inhibitors of diacylglycerol O-acyltransferase 1 (DGAT-1) and uses thereof” (Metabasis Therapeutics, Inc., priority 2009, dated 2020).
Like-named read-outs stand apart in the source and are kept apart here.

Tests used:
Sprague Dawley rats = assay: In vivo assay for intestinal triglyceride export (serum TAG after olive oil gavage); parameters: species or system rat; conditions: oral administration, doses in the range of 0.1 to 30 mg/kg
Procedure: The following screen can be used to evaluate the effects of DGAT-1 inhibitors on the export of dietary TAGs from the intestine to the circulation in rodents (male Sprague Dawley rats or C57BL/6 mice).
Methods: Animals (housed 2/cage) are fasted overnight, and dosed (PO) the next day with vehicle (1% Tween-80) or test compound at doses ranging from 0.01 to 30 mg/kg, followed by an oral gavage of olive oil. Blood samples are taken at baseline and at appropriate intervals over the course of 4 hours. Serum TAG levels are determined using the Infinity triglyceride reagent per the manufacturer's instructions.

hDGAT1 = hDGAT1 (Homo sapiens (Human), UniProt O75907); assay: Inhibition of human microsomal DGAT activity (14C-TAG formation, intestinal microsomes); assay type: biochemical
hDGAT1, sequence (O75907 whole entry): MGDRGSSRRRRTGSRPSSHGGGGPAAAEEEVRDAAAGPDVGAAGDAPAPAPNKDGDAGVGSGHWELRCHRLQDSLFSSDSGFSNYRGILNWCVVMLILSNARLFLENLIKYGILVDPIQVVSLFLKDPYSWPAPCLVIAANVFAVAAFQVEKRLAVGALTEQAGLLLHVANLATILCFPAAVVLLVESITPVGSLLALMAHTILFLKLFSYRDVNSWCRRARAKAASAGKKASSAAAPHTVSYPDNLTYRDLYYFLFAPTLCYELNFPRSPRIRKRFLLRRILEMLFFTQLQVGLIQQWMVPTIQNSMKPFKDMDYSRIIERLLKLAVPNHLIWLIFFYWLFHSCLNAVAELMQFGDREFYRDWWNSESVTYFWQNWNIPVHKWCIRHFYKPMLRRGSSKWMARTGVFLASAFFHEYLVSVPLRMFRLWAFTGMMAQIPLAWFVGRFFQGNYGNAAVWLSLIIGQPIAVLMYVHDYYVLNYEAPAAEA
Procedure: The inhibition of DGAT-1 activity can be assessed in intestinal microsome preparations by monitoring the incorporation of radiolabeled fatty acyl-CoA into […].
Methods: Commercial microsomal preparations containing 60 ug of protein are incubated in assay buffer [20 uM 1,2-didecanloyl glycerol, 5 uM ^14C decanoyl-CoA, 5 mM MgCl2, 0.4% BSA, 0.1% dimethyl sulfoxide (DMSO), 50 mM HEPES-pH 7.5] in the presence of varying concentrations of inhibitors that are dispensed from 100% DMSO stock solutions. Final assay volumes are 200 uL. Reactions are carried out for 45 minutes in 96-well polystyrene microtiter plates at ambient temperature. Following the ambient temperature incubation, assay mixtures are applied to a 96-well filter plate (Catalog # MSHVN4510, Millipore Inc.; Billerica, Mass.) under vacuum. The filter plate is pre-equilibrated with 100 uL of 70% ethanol followed by 200 uL of assay buffer. […] De novo ^14C-TAG formed in the assay and trapped on the filters is quantified with use of a liquid scintillation counter (Model # LS6500 Beckman Coulter, Inc.; Fullerton, Calif.).

[1] = Plasma pharmacokinetics and oral bioavailability in rats; assay type: in vivo, rat; conditions: male Sprague Dawley rats, 5 mg/kg, LOQ 0.001 ug/mL
Procedure: Pharmacokinetic studies in rats are useful for the identification of DGAT-1 inhibitors that have low oral bioavailability and show low systemic exposure (i.e. low circulating levels in plasma).
Methods: Groups of male Sprague Dawley rats (200-250 g) (n=3/group) were administered either an IV bolus (1% Tween-80, pH adjusted to 7, vehicle) or an oral gavage (50% PEG-200 in 1% Tween-80 vehicle) of 5 mg/kg of each DGAT-1 inhibitor. Blood (EDTA) was collected by tail nick at 0.5, 1, 2, 4, 8, 10-12 and 24 hr post dose. Following centrifugation of the blood to obtain plasma, the samples were analyzed by LC-MS/MS method for active metabolite. The pharmacokinetic parameters were calculated by noncompartmental analysis of the plasma concentration-time profile of the active metabolite. The oral bioavailability was determined by dividing the dose-normalized plasma AUC value of the active metabolite following oral administration of the DGAT-1 inhibitor by the plasma AUC value of the active metabolite after IV bolus administration.

[2] = microsomal preparation, 14C decanoyl-CoA, 45 min, ambient temperature

Compound	IC50 (hDGAT1; [2])	also measured
CP(=O)(O)[C@@H]1CCC[C@H]1C(=O)c1ccc(-c2ccc(NC(=O)Nc3ccccc3)cc2)cc1 [Compound 2]	–	AUC0-4h of serum TAGs (Sprague Dawley rats): reduced; Cmax [1]: 5 ng/mL
CCOP(=O)(O)OC1CCC(c2ccc(C3=Nc4c(N)ncnc4OC3(C)C)cc2)CC1 (stereo not shown) [Compound 9]	–	IC50 (hDGAT1): < 0.01 µM
CC1(C)Oc2ncnc(N)c2N=C1c1ccc(C2CCC(OP(=O)(O)OC3CCCC3)CC2)cc1 (stereo not shown) [Compound 10]	< 0.01 µM	–
CC1(C)Oc2ncnc(N)c2N=C1c1ccc([C@H]2CC[C@H](OP(=O)(O)Cc3ccc(C(=O)O)cc3)CC2)cc1 [Compound 17]	< 0.01 µM	–
CC1(C)Oc2ncnc(N)c2N=C1c1ccc([C@H]2CC[C@H](OP(=O)(O)c3cccs3)CC2)cc1 [Compound 19]	< 0.01 µM	–
CC1(C)Oc2ncnc(N)c2N=C1c1ccc([C@H]2CC[C@H](OP(=O)(O)c3ccsc3)CC2)cc1 [Compound 20]	< 0.01 µM	–

Further lines, with some results ahead:

IC50 (hDGAT1; [2])	Compound	also measured
< 0.01 µM	CC1(C)Oc2ncnc(N)c2N=C1c1ccc([C@H]2CC[C@H](CP(C)(=O)O)CC2)cc1 [Compound 1]	AUC0-4h of serum TAGs (Sprague Dawley rats): reduced; Cmax [1]: 9 ng/mL
< 0.01 µM	CC1(C)Oc2ncnc(N)c2N=C1c1ccc([C@H]2CC[C@H](OP(=O)(O)O)CC2)cc1 [Compound 3]	–
< 0.01 µM	CP(=O)(O)C[C@H]1CC[C@H](c2ccc(NC(=O)c3nnc(Nc4ccc(F)c(F)c4)o3)cc2)CC1 [Compound 5]	AUC0-4h of serum TAGs (Sprague Dawley rats): reduced; Cmax [1]: 3 ng/mL
< 0.01 µM	CC(C)COP(=O)(O)O[C@H]1CC[C@H](c2ccc(C3=Nc4c(N)ncnc4OC3(C)C)cc2)CC1 [Compound 8]	–
< 0.01 µM	CC1(C)Oc2ncnc(N)c2N=C1c1ccc(C2CCC(OP(=O)(O)Cc3ccccc3)CC2)cc1 (stereo not shown) [Compound 11]	–
< 0.01 µM	CC1(C)Oc2ncnc(N)c2N=C1c1ccc([C@H]2CC[C@H](OP(=O)(O)c3ccccc3)CC2)cc1 [Compound 14]	–
< 0.01 µM	CC1(C)Oc2ncnc(N)c2N=C1c1ccc([C@H]2CC[C@H](CP(=O)(O)c3ccccc3)CC2)cc1 [Compound 21]	–
< 0.01 µM	CC1(C)Oc2ncnc(N)c2N=C1c1ccc([C@H]2CC[C@H](CP(=O)(O)C3CC3)CC2)cc1 [Compound 23]	–
